Test results: patent publication US20090270435A1 (priority 2006, published 2009)
Where a name gives a salt, the structure may show the parent alone.

The compounds below were run against T1, ACC1 from rat liver (Rattus norvegicus, UniProt P11497) (assay: Direct inhibition of ACC1 activity (14C-bicarbonate incorporation)). Conditions: ACC1 from rat liver.
T1 construct: The livers (for ACC1 preparation) or skeletal muscle tissue (for ACC2 preparation) are removed; from tissue; host or cells: liver of male CD rats (fasted, then fed a high sucrose diet)
Assay type: biochemical
Method in brief: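 ACC1 partially purified from livers of fasted/sucrose-refed male rats by PEG and ammonium sulfate fractionation, then preincubated 30 min at 37°C with 10 mM citrate and 1.0 mM MgCl2. Reaction ran 7 min at 37°C, stopped with HCl; acid-stable radioactivity counted by scintillation; HCl-first tubes served as blanks.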

Row | IC50 | Compound
1 | < 3000 nM | Cc1cc2c(cc1C)C(=O)CC1(CCN(C(=O)c3ccc4nccnc4c3)CC1)O2 [Ex. L45, 6,7-dimethyl-1′-(quinoxalin-6-ylcarbonyl)spiro[chromene-2,4′-piperidin]-4(3H)-one]
2 | 130 nM | Cc1cc2c(cc1C)C(=O)CC1(CCN(C(=O)c3ccc4c(c3)nc(N3CCCC3)n4C)CC1)O2 [Ex. L29, 6,7-dimethyl-1′-[(1-methyl-2-pyrrolidin-1-yl-1H-benzimidazol-5-yl)carbonyl]spiro[chromene-2,4′-piperidin]-4(3H)-one]
3 | 1140 nM | CCc1nc2cc(C(=O)N3CCC4(CC3)CC(=O)c3c(OC)cccc3O4)ccc2n1-c1cccc(OC)c1 [Ex. L31, 1′-{[2-ethyl-1-(3-methoxyphenyl)-1H-benzimidazol-5-yl]carbonyl}-5-methoxyspiro[chromene-2,4′-piperidin]-4(3H)-one]
4 | 562 nM | COc1ccc2c(c1)C(=O)CC1(CCN(C(=O)c3cccc4cn[nH]c34)CC1)O2 [Ex. H7]
5 | > 1000 nM | CC(C)n1nnc2cc(C(=O)N3CCC4(CC3)CC(=O)c3cc(Cl)ccc3O4)ccc21 [Ex. L42, 6-chloro-1′-[(1-isopropyl-1H-1,2,3-benzotriazol-5-yl)carbonyl]spiro[chromene-2,4′-piperidin]-4(3H)-one]
6 | 1390 nM | O=C1CC2(CCN(C(=O)c3cccc4cn[nH]c34)CC2)Oc2ccc(Cl)cc21 [Ex. H14, 6-chloro-1′-(1H-indazol-7-ylcarbonyl)spiro[chromene-2,4′-piperidin]-4(3H)-one]
7 | 22.6 nM | CCc1cc(C(=O)N2CCC3(CC2)CC(=O)c2cc(OC)ccc2O3)cc2cn[nH]c12 [Ex. C2, 1′-[(7-ethyl-1H-indazol-5-yl)carbonyl]-6-methoxyspiro[chromene-2,4′-piperidin]-4(3H)-one]
8 | < 1000 nM | Cn1ccc2ccc(C(=O)N3CCC4(CC3)CC(=O)c3cc(Cl)ccc3O4)cc21 [Ex. L5, 6-chloro-1′-[(1-methyl-1H-indol-6-yl)carbonyl]spiro[chromene-2,4′-piperidin]-4(3H)-one]
9 | 81.5 nM | COc1cc(Cl)cc2c1C(=O)CC1(CCN(C(=O)c3cc(C)c4[nH]ncc4c3)CC1)O2 [Ex. A19, 7-chloro-5-methoxy-1′-[(7-methyl-1H-indazol-5-yl)carbonyl]spiro[chromene-2,4′-piperidin]-4(3H)-one]
10 | 2660 nM | O=C1CC2(CCN(C(=O)c3cccc4cn[nH]c34)CC2)Oc2c(Cl)cc(Cl)cc21 [Ex. H22, 6,8-dichloro-1′-(1H-indazol-7-ylcarbonyl)spiro[chromene-2,4′-piperidin]-4(3H)-one]
11 | 54.3 nM | COC(=O)c1ccc2c(c1)C(=O)CC1(CCN(C(=O)c3cc(C)c4[nH]nc(C)c4c3)CC1)O2 [Ex. E4, methyl 1′-[(3,7-dimethyl-1H-indazol-5-yl)carbonyl]-4-oxo-3,4-dihydrospiro[chromene-2,4′-piperidine]-6-carboxylate]
12 | 1480 nM | 5,7-dichloro-1′-(1H-indazol-7-ylcarbonyl)spiro[chromene-2,4′-piperidin]-4(3H)-one [Ex. H15]
13 | 50.7 nM | Cc1cc2c(cc1C)C(=O)CC1(CCN(C(=O)c3ccc4nc(-c5ccncc5)[nH]c4c3)CC1)O2 [Ex. L36, 6,7-dimethyl-1′-[(2-pyridin-4-yl-1H-benzimidazol-6-yl)carbonyl]spiro[chromene-2,4′-piperidin]-4(3H)-one trifluoroacetic acid salt]
14 | 2210 nM | O=C1CC2(CCN(C(=O)c3cccc4cn[nH]c34)CC2)Oc2cc(-c3ccccc3)ccc21 [Ex. H18, 1′-(1H-indazol-7-ylcarbonyl)-7-phenylspiro[chromene-2,4′-piperidin]-4(3H)-one]
15 | 1830 nM | COc1c(Cl)ccc2c1C(=O)CC1(CCN(C(=O)c3cccc4cn[nH]c34)CC1)O2 [Ex. H17, 6-chloro-1′-(1H-indazol-7-ylcarbonyl)-5-methoxyspiro[chromene-2,4′-piperidin]-4(3H)-one]
16 | > 3000 nM | O=C1CC2(CCN(C(=O)c3cccc4cn[nH]c34)CC2)Oc2ccccc21
17 | 321 nM | Cc1cc2c(cc1Cl)C(=O)CC1(CCN(C(=O)c3cccc4cn[nH]c34)CC1)O2 [Ex. H5, 6-chloro-1′-(1H-indazol-7-ylcarbonyl)-7-methylspiro[chromene-2,4′-piperidin]-4(3H)-one]
18 | 180 nM | 5,7-dichloro-1′-[(7-chloro-1H-indazol-5-yl)carbonyl]spiro[chromene-2,4′-piperidin]-4(3H)-one [Ex. B9]
19 | 2430 nM | COc1cccc2c1C(=O)CC1(CCN(C(=O)c3cccc4cn[nH]c34)CC1)O2 [Ex. H20, 1′-(1H-indazol-7-ylcarbonyl)-5-methoxyspiro[chromene-2,4′-piperidin]-4(3H)-one]
20 | 390 nM | CCc1nc2cc(C(=O)N3CCC4(CC3)CC(=O)c3ccccc3O4)ccc2n1-c1cccc(OC)c1 [Ex. L30, 1′-{[2-ethyl-1-(3-methoxyphenyl)-1H-benzimidazol-5-yl]carbonyl}spiro[chromene-2,4′-piperidin]-4(3H)-one]
21 | 362 nM | Cc1cc2c(cc1C)C(=O)CC1(CCN(C(=O)c3ccc4[nH]nnc4c3)CC1)O2 [Ex. L39, 1′-(1H-1,2,3-benzotriazol-5-ylcarbonyl)-6,7-dimethylspiro[chromene-2,4′-piperidin]-4(3H)-one trifluoroacetic acid salt]
22 | 109 nM | Cc1cc(C(=O)N2CCC3(CC2)CC(=O)c2cc(C(C)C)ccc2O3)cc2cn[nH]c12 [Ex. A23, 6-isopropyl-1′-[(7-methyl-1H-indazol-5-yl)carbonyl]spiro[chromene-2,4′-piperidin]-4(3H)-one]
23 | 49.5 nM | CCc1cc(C(=O)N2CCC3(CC2)CC(=O)c2cc(C(=O)OC)ccc2O3)cc2cn[nH]c12 [Ex. C5, methyl 1′-[(7-ethyl-1H-indazol-5-yl)carbonyl]-4-oxo-3,4-dihydrospiro[chromene-2,4′-piperidine]-6-carboxylate]
24 | 113 nM | Cc1cc(C(=O)N2CCC3(CC2)CC(=O)c2cc(Cl)ccc2O3)cc2cn[nH]c12 [Ex. A26, 6-chloro-1′-[(7-methyl-1H-indazol-5-yl)carbonyl]spiro[chromene-2,4′-piperidin]-4(3H)-one]
25 | 99.9 nM | Cc1cc2c(cc1C)C(=O)CC1(CCN(C(=O)c3ccc4nc[nH]c4c3)CC1)O2 [Ex. L33, 1′-(1H-benzimidazol-6-ylcarbonyl)-6,7-dimethylspiro[chromene-2,4′-piperidin]-4(3H)-one]
26 | 109 nM | COc1cccc2c1C(=O)CC1(CCN(C(=O)c3cc(Cl)c4[nH]ncc4c3)CC1)O2 [B6, 1′-[(7-chloro-1H-indazol-5-yl)carbonyl]-5-methoxyspiro[chromene-2,4′-piperidin]-4(3H)-one]
27 | 101 nM | COc1cccc2c1C(=O)CC1(CCN(C(=O)c3ccc4[nH]cc(Cl)c4c3)CC1)O2 [Ex. L10, 1′-[(3-chloro-1H-indol-5-yl)carbonyl]-5-methoxyspiro[chromene-2,4′-piperidin]-4(3H)-one]
28 | 24.1 nM | Cc1cc2c(cc1C)C(=O)CC1(CCN(C(=O)c3cc(Cl)c4[nH]ncc4c3)CC1)O2 [Ex. B1, 1′-[(7-chloro-1H-indazol-5-yl)carbonyl]-6,7-dimethylspiro[chromene-2,4′-piperidin]-4(3H)-one]
29 | 38.2 nM | Cc1cc(C(=O)N2CCC3(CC2)CC(=O)c2cc(C(N)=O)ccc2O3)cc2cn[nH]c12 [Ex. A10, 1′-[(7-methyl-1H-indazol-5-yl)carbonyl]-4-oxo-3,4-dihydrospiro[chromene-2,4′-piperidine]-6-carboxamide]
30 | 756 nM | COc1cc2c(c(OC)c1OC)C(=O)CC1(CCN(C(=O)c3cccc4cn[nH]c34)CC1)O2 [Ex. H11, 1′-(1H-indazol-7-ylcarbonyl)-5,6,7-trimethoxyspiro[chromene-2,4′-piperidin]-4(3H)-one]

Same assay, conditions: Table of Examples M1-M36

Row | IC50 | Compound
31 | 737 nM | O=C1CC2(CCN(C(=O)c3cccc(-c4cc[nH]n4)c3)CC2)Oc2ccc(C(=O)N3CCOCC3)cc21 [Ex. M32, 6-(morpholin-4-ylcarbonyl)-1′-[3-(1H-pyrazol-3-yl)benzoyl]spiro[chromene-2,4′-piperidin]-4(3H)-one]
32 | 110 nM | CNC(=O)c1ccc2c(c1)C(=O)CC1(CCN(C(=O)c3cccc(-c4cc[nH]n4)c3)CC1)O2 [Ex. M4, N-methyl-4-oxo-1′-[3-(1H-pyrazol-3-yl)benzoyl]-3,4-dihydrospiro[chromene-2,4′-piperidine]-6-carboxamide]
33 | 452 nM | Cc1cc2c(c(C)c1Cl)C(=O)CC1(CCN(C(=O)c3cccc(-c4cc[nH]n4)c3)CC1)O2 [M22, 6-chloro-5,7-dimethyl-1′-[3-(1H-pyrazol-3-yl)benzoyl]spiro[chromene-2,4′-piperidin]-4(3H)-one]

Same assay, conditions: Table of Examples P1-P15

Row | IC50 | Compound
34 | 399 nM | Cc1cc2c(cc1C)C(=O)CC1(CCN(C(=O)c3cccc(-n4cccn4)c3)CC1)O2 [Ex. P11, 6,7-Dimethyl-1′-[3-(1H-pyrazol-1-yl)benzoyl]spiro[chromene-2,4′-piperidin]-4(3H)-one]
35 | < 3000 nM | Cc1cc2c(cc1C)C(=O)CC1(CCN(C(=O)c3cc(-c4ccn(C)n4)ccc3Cl)CC1)O2 [Ex. P3, 1′-[2-chloro-5-(1-methyl-1H-pyrazol-3-yl)benzoyl]-6,7-dimethylspiro[chromene-2,4′-piperidin]-4(3H)-one]
36 | < 3000 nM | Cc1nc(-c2cccc(C(=O)N3CCC4(CC3)CC(=O)c3cc(C)c(C)cc3O4)c2)no1 [Ex. P14, 6,7-Dimethyl-1′-[3-(5-methyl-1,2,4-oxadiazol-3-yl)benzoyl]spiro[chromene-2,4′-piperidin]-4(3H)-one]
37 | < 3000 nM | Cc1cc2c(cc1C)C(=O)CC1(CCN(C(=O)c3cc(-c4cc[nH]n4)ccc3F)CC1)O2 [Ex. P4, 1′-[2-fluoro-5-(1H-pyrazol-3-yl)benzoyl]-6,7-dimethylspiro[chromene-2,4′-piperidin]-4(3H)-one trifluoroacetic acid salt]
38 | < 3000 nM | Cc1cc2c(cc1C)C(=O)CC1(CCN(C(=O)c3cc(-c4ccnn4C)ccc3Cl)CC1)O2 [Ex. P10, 1′-[2-chloro-5-(1-methyl-1H-pyrazol-5-yl)benzoyl]-6,7-dimethylspiro[chromene-2,4′-piperidin]-4(3H)-one]
